According to PMC9329436, “Optimization of the 4-anilinoquin(az)oline scaffold as epidermal growth factor receptor (EGFR) inhibitors for chordoma utilizing a toxicology profiling assay platform” (Scientific Reports, 2022):
Like-named read-outs stand apart in the source and are kept apart here.

How the values were obtained:
Assay type in all cases: biochemical
[1] = target: T1, 320 wild-type protein kinases (Homo sapiens, UniProt Q12851); settings: singlicate
T1 sequence (Q12851 1-820): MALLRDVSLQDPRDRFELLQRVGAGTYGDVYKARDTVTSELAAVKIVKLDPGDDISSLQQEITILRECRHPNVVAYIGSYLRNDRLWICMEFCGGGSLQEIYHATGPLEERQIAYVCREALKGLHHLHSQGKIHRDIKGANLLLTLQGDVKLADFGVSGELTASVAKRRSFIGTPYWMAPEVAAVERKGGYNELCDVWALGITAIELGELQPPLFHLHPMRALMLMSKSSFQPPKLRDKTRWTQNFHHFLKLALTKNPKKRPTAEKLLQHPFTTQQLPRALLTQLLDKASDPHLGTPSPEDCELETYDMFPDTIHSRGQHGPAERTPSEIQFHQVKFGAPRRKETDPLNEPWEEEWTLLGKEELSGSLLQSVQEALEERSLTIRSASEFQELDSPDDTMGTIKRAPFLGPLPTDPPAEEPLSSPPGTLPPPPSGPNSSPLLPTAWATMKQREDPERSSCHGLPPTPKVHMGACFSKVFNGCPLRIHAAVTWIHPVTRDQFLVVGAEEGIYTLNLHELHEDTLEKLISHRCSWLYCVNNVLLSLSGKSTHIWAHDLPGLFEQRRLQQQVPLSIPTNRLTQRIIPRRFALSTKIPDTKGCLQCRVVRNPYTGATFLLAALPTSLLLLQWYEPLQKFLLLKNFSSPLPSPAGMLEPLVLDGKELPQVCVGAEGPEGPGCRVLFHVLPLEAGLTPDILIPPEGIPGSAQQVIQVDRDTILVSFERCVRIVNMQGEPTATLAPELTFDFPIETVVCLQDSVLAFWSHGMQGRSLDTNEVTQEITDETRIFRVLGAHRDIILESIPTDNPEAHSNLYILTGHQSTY
Excerpt: (§1) Table S4. Profiling of two compounds at two concentrations against 320 wild-type protein kinases; singlicate measurement; Residual activities (% of control).

[2] = target: 320 wild-type protein kinases (Homo sapiens, UniProt Q16816); settings: singlicate
Excerpt: as §1

[3] = target: T2, 320 wild-type protein kinases (Homo sapiens, UniProt Q8TD19); settings: singlicate
T2 sequence (Q8TD19 1-979): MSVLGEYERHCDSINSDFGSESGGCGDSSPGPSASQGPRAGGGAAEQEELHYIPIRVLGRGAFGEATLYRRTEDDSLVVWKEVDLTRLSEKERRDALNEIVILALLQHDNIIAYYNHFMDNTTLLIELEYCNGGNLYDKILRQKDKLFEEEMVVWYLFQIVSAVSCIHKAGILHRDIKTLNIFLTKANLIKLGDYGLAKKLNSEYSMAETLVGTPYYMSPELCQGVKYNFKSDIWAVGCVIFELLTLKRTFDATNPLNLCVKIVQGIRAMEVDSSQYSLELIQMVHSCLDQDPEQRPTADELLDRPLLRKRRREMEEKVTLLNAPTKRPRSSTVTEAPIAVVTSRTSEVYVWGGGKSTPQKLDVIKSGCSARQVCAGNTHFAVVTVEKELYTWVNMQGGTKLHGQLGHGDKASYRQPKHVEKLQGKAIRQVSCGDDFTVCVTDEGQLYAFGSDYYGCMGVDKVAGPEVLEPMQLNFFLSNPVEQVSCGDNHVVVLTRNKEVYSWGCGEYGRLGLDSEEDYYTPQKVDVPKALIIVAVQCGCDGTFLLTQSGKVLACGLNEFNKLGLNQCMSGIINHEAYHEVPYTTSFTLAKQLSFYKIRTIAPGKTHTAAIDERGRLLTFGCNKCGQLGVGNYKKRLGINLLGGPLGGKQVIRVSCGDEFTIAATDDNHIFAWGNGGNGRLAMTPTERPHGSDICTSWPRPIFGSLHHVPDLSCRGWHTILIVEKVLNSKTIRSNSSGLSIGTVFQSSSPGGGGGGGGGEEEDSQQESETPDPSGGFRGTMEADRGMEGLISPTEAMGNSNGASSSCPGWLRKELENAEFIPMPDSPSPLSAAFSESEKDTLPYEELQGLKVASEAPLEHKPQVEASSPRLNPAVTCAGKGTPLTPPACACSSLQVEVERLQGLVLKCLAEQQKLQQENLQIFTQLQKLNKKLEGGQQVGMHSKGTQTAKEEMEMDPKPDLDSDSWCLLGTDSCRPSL
Excerpt: as §1

[4] = target: 320 wild-type protein kinases (Homo sapiens, UniProt Q9H3Y6); settings: kinase SRMS, singlicate
Excerpt: as §1

Sequence of 320 wild-type protein kinases (Homo sapiens, UniProt Q9H3Y6) (Q9H3Y6 whole entry): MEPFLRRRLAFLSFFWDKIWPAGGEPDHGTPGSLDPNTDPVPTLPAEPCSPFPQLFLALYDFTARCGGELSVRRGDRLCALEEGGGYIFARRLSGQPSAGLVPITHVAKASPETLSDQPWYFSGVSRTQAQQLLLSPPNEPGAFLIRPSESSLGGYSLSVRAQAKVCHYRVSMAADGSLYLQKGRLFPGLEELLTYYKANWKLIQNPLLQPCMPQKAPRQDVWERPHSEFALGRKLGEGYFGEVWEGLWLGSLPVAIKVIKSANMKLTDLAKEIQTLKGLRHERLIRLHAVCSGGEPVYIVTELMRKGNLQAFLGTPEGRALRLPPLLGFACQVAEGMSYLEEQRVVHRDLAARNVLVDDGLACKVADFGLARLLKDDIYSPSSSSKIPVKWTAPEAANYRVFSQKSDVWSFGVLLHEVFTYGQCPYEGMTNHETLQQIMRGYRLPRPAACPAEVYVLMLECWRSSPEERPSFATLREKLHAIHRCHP
Sequence of 320 wild-type protein kinases (Homo sapiens, UniProt Q16816) (Q16816 whole entry): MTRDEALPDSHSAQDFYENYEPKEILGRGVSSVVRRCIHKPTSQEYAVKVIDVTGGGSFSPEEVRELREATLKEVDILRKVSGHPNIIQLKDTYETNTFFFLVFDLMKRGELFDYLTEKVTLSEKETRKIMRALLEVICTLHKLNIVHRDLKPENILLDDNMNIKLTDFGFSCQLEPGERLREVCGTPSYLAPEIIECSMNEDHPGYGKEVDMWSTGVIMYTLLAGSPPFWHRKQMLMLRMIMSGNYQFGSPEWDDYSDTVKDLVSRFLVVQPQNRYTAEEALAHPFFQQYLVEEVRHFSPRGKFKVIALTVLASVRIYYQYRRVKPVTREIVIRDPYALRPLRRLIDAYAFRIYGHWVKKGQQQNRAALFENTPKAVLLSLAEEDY

| Compound | Residual activity ([1]; MAP4K2, 1.0E-06 M) | Residual activity ([1]; MAP4K2, 1.0E-07 M) | Residual activity ([2]; PHKG1, 1.0E-06 M) | Residual activity ([2]; PHKG1, 1.0E-07 M) | Residual activity ([3]; NEK9, 1.0E-06 M) | Residual activity ([3]; NEK9, 1.0E-07 M) | Residual activity, SRMS ([4]; assay conc. 1.0E-06 M) | Residual activity, SRMS ([4]; assay conc. 1.0E-07 M) |
| --- | --- | --- | --- | --- | --- | --- | --- | --- |
| C#Cc1cc(Nc2ncnc3cc(I)ccc23)ccc1Cl [Compound 41] | 94 % of control | 99 % of control | 94 % of control | 97 % of control | 115 % of control | 134 % of control | 98 % of control | 113 % of control |
| C#Cc1cc(Nc2ncnc3cc(OC)c(OC)cc23)ccc1Cl [Compound 45] | 113 % of control | 105 % of control | 85 % of control | 108 % of control | 91 % of control | 111 % of control | 103 % of control | 124 % of control |
